Drawing on patent US9796716B2, “Selective inhibitors of Tec and Src protein kinase families” (Pharmascience, Inc., priority 2012, dated 2017), this text covers Ki and EC50 for 46 molecules.

Each structure is given as a SMILES string.

In test [1] the target is recombinant human full-length Bruton Agammaglobulinemia Tyrosine Kinase (Btk) (Homo sapiens (Human), UniProt Q06187). Description: Btk Kinase Inhibition Assay (fluorescence polarization). Format: biochemical. The note with it: 10 μM ATP, 250 μM substrate, 60 minutes; Ki calculated from IC50 using the Cheng-Prusoff equation. As to the method:
Kinase Binding Btk Kinase Inhibition Assay
Fluorescence polarization-based kinase assays were performed in 384 well-plate format using histidine tagged recombinant human full-length Bruton Agammaglobulinemia Tyrosine Kinase (Btk) and a modified protocol of the KinEASE™ FP Fluorescein Green Assay supplied from Millipore. Kinase reaction were performed at room temperature for 60 minutes in presence of 250 μM substrate, 10 μM ATP and variable test article concentrations. The reaction was stopped with EDTA/kinase detection reagents and the polarization measured on a Tecan 500 instrument. From the dose-response curve obtained, the IC50 was calculated using Graph Pad Prisms® using a non linear fit curve. The Km for ATP on each enzyme was experimentally determined and the Ki values calculated using the Cheng-Prusoff equation (see: Cheng Y, Prusoff W H. (1973) Relationship between the inhibition constant (K1) and the concentration of inhibitor which causes 50 percent inhibition (I50) of an enzymatic reaction”. Biochem Pharmacol 22 (23): 3099-108).

The subject of test [2] is Splenocytes (B cell proliferation stimulated with anti-IgM F(ab′)2). Kind of test: Splenic Cell Proliferation Assay. It is filed as cell-based. The note with it: Mus musculus, Splenocyte, 72 h, CD1 mouse splenocytes, 2.5 ug/ml anti-IgM F(ab′)2 for 72 h, Cell Titer-Glo; read-out: EC50 (nM), Inhibition of splenic cell proliferation. As to the method: Splenic Cell Proliferation Assay
Splenocytes were obtained from 6 week old male CD1 mice (Charles River Laboratories Inc.). Mouse spleens were manually disrupted in PBS and filtered using a 70 um cell strainer followed by ammonium chloride red blood cell lysis. Cells were washed, resuspended in Splenocyte Medium (HyClone RPMI supplemented with 10% heat-inactivated FBS, 0.5× non-essential amino acids, 10 mM HEPES, 50 uM beta mercaptoethanol) and incubated at 37° C., 5% CO2 for 2 h to remove adherent cells. Suspension cells were seeded in 96 well plates at 50,000 cells per well and incubated at 37° C., 5% CO2 for 1 h. Splenocytes were pre-treated in triplicate with 10,000 nM curves of Formula 1 compounds for 1 h, followed by stimulation of B cell proliferation with 2.5 ug/ml anti-IgM F(ab′)2 (Jackson ImmunoResearch) for 72 h. Cell proliferation was measured by Cell Titer-Glo Luminescent Assay (Promega). EC50 values (50% proliferation in the presence of compound as compared to vehicle treated controls) were calculated from dose response compound curves using GraphPad Prism Software.

Chain of recombinant human full-length Bruton Agammaglobulinemia Tyrosine Kinase (Btk) (Q06187 whole entry): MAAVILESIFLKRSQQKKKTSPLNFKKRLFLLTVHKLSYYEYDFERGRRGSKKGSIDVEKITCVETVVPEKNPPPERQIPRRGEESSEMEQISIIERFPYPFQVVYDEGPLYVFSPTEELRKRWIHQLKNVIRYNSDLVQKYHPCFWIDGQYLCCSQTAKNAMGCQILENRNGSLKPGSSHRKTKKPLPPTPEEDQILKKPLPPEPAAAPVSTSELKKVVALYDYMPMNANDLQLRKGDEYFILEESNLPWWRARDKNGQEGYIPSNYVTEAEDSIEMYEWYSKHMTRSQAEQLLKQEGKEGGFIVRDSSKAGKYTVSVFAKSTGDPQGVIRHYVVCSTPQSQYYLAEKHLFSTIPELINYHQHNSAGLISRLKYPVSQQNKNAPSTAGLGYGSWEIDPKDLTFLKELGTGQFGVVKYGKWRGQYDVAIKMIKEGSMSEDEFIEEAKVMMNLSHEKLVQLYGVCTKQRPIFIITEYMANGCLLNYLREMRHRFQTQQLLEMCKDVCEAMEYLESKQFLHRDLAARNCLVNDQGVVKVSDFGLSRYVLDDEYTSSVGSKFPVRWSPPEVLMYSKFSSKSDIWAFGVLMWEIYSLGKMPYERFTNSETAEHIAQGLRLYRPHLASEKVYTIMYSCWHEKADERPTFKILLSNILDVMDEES

Usually Ki stands for a measure of affinity in units of concentration, obtained from inhibition or displacement. With `Nc1ncnc2[nH]nc(-c3ccc(Oc4cccc(OCc5ccccc5)c4)cc3)c12` [Compound 1], in test [1], the Ki is below 100 nM. In test [2], the EC50 is 100 to 1000 nM.

For `Nc1ncnc2c1c(-c1ccc(Oc3cccc(OCc4ccccc4)c3)cc1)nn2C1CCCC1` [Compound 2], the Ki in test [1] was below 100 nM. Further, in test [2], the EC50 lay within 100 to 1000 nM.

On to `CC(C)(C)OC(=O)N1CCC[C@@H](n2nc(-c3ccc(Oc4cccc(OCc5ccccc5)c4)cc3)c3c(N)ncnc32)C1` [Compound 3], for which the inhibition constant (Ki) in test [1] was below 100 nM. The EC50 in test [2] lay within 100 to 1000 nM.

For `Nc1ncnc2c1c(-c1ccc(Oc3cccc(OCc4ccccc4)c3)cc1)nn2[C@@H]1CCCNC1` [Compound 4], in test [1], the Ki is below 100 nM. Further, the EC50 in test [2] lay in the range of 100 to 1000 nM.

As to `C=CC(=O)N1CCC[C@@H](n2nc(-c3ccc(Oc4cccc(OCc5ccccc5)c4)cc3)c3c(N)ncnc32)C1` [Compound 5], the Ki in test [1] is below 100 nM. Besides, the EC50 in test [2] is below 100 nM.

With `CC(=O)N1CCC[C@@H](n2nc(-c3ccc(Oc4cccc(OCc5ccccc5)c4)cc3)c3c(N)ncnc32)C1` [Compound 6], the Ki in test [1] is below 100 nM. The EC50 in test [2] is below 100 nM.

For `CCCC(=O)N1CCC[C@@H](n2nc(-c3ccc(Oc4cccc(OCc5ccccc5)c4)cc3)c3c(N)ncnc32)C1` [Compound 7], the Ki in test [1] is below 100 nM. Moreover, the EC50 in test [2] lay in the range of 100 to 1000 nM.

Take `CC(C)C(=O)N1CCC[C@@H](n2nc(-c3ccc(Oc4cccc(OCc5ccccc5)c4)cc3)c3c(N)ncnc32)C1` [Compound 8]: the Ki in test [1] is below 100 nM. For the same molecule, the EC50 in test [2] was below 100 nM.

Turning to `Nc1ncnc2c1c(-c1ccc(Oc3cccc(OCc4ccc(Cl)cc4)c3)cc1)nn2C1CCCC1` [Compound 9], in test [1], the Ki was below 100 nM. Besides, the EC50 in test [2] fell in the range of 100 to 1000 nM.

`COc1cccc(COc2cccc(Oc3ccc(-c4nn(C5CCCC5)c5ncnc(N)c45)cc3)c2)c1` [Compound 10]: the Ki in test [1] is below 100 nM. Moreover, the EC50 in test [2] lay within 100 to 1000 nM.

Take `COc1ccc(COc2cccc(Oc3ccc(-c4nn(C5CCCC5)c5ncnc(N)c45)cc3)c2)cc1` [Compound 11]: in test [1], the Ki is below 100 nM. Further, in test [2], the EC50 was in the range of 100 to 1000 nM.

For the molecule `N#Cc1ccccc1COc1cccc(Oc2ccc(-c3nn(C4CCCC4)c4ncnc(N)c34)cc2)c1` [Compound 12], the Ki in test [1] was below 100 nM. In addition, the EC50 in test [2] was 100 to 1000 nM.

For the molecule `Nc1ncnc2c1c(-c1ccc(Oc3cccc(COc4ccccc4)c3)cc1)nn2C1CCCC1` [Compound 13], the Ki in test [1] was below 100 nM. Also, in test [2], the EC50 was below 100 nM.

On to `Cn1nc(-c2ccc(Oc3cccc(OCc4ccccc4)c3)cc2)c2c(N)ncnc21` [Compound 16], for which the Ki in test [1] was below 100 nM. Moreover, in test [2], the EC50 fell in the range of 100 to 1000 nM.

For the molecule `Cn1nc(-c2ccc(Oc3cccc(COc4ccccc4C#N)c3)cc2)c2c(N)ncnc21` [Compound 17], the Ki in test [1] is below 100 nM. Also, the EC50 in test [2] fell in the range of 100 to 1000 nM.

Consider `Cc1ncc(COc2cccc(Oc3ccc(-c4nn(C)c5ncnc(N)c45)cc3)c2)s1` [Compound 18], for which, in test [1], the Ki is below 100 nM. In test [2], the EC50 is below 100 nM.

Turning to `Cn1nc(-c2ccc(Oc3cccc(OCc4cncs4)c3)cc2)c2c(N)ncnc21` [Compound 19], in test [1], the Ki is below 100 nM. The EC50 in test [2] lay in the range of 100 to 1000 nM.

On to `Cn1nc(-c2ccc(Oc3cccc(OCc4ccccc4C(F)(F)F)c3)cc2)c2c(N)ncnc21` [Compound 20], for which, in test [1], the Ki was below 100 nM. Also, the EC50 in test [2] was below 100 nM.

Turning to `Nc1ncnc2c1c(-c1ccc(Oc3cccc(OCc4ccccc4)c3)cc1)nn2C1CCOCC1` [Compound 21], in test [1], the Ki is below 100 nM. Also, in test [2], the EC50 was below 100 nM.

Take `N#Cc1ccccc1OCc1cccc(Oc2ccc(-c3nn(C4CCOCC4)c4ncnc(N)c34)cc2)c1` [Compound 22]: the Ki in test [1] was below 100 nM. The EC50 in test [2] is below 100 nM.

In the case of `Nc1ncnc2c1c(-c1ccc(Oc3cccc(OCc4ccccc4C(F)(F)F)c3)cc1)nn2C1CCOCC1` [Compound 23], the Ki in test [1] was below 100 nM. For the same molecule, in test [2], the EC50 was below 100 nM.

In the case of `CC(=O)N1CCC[C@@H](n2nc(-c3ccc(Oc4cccc(COc5ccccc5C#N)c4)cc3)c3c(N)ncnc32)C1` [Compound 25], in test [1], the Ki is below 100 nM. Also, the EC50 in test [2] was below 100 nM.

For `CC(=O)N1CCC[C@@H](n2nc(-c3ccc(Oc4cccc(OCc5ccccc5C(F)(F)F)c4)cc3)c3c(N)ncnc32)C1` [Compound 26], the Ki in test [1] was below 100 nM. Besides, the EC50 in test [2] was below 100 nM.

As to `CC(=O)N1CCC[C@@H](n2nc(-c3ccc(Oc4cccc(OCc5cncs5)c4)cc3)c3c(N)ncnc32)C1` [Compound 27], the Ki in test [1] is below 100 nM. Besides, in test [2], the EC50 was below 100 nM.

On to `CC(=O)N1CCC[C@@H](n2nc(-c3ccc(Oc4cccc(OCc5ccccc5C#N)c4)cc3)c3c(N)ncnc32)C1` [Compound 28], for which the Ki in test [1] is below 100 nM. Besides, the EC50 in test [2] was below 100 nM.

In the case of `Nc1ncnc2c1c(-c1ccc(Oc3cccc(OCc4ccccc4C(F)(F)F)c3)cc1)nn2C1CCCC1` [Compound 29], the Ki in test [1] is below 100 nM. Also, the EC50 in test [2] was below 100 nM.

As for `Cn1nc(-c2ccc(Oc3cccc(OCc4ccccc4C#N)c3)cc2)c2c(N)ncnc21` [Compound 30], the Ki in test [1] was below 100 nM. Further, the EC50 in test [2] is below 100 nM.

With `Cn1nc(-c2ccc(Oc3cccc(COc4ccccc4C(F)(F)F)c3)cc2)c2c(N)ncnc21` [Compound 31], the Ki in test [1] was below 100 nM. Also, the EC50 in test [2] was in the range of 100 to 1000 nM.

As for `Nc1ncnc2c1c(-c1ccc(Oc3cccc(COc4ccccc4C(F)(F)F)c3)cc1)nn2C1CCCC1` [Compound 32], in test [1], the Ki is below 100 nM. Also, the EC50 in test [2] is below 100 nM.

Consider `CC(=O)N1CCC[C@@H](n2nc(-c3ccc(Oc4cccc(COc5ccccc5C(F)(F)F)c4)cc3)c3c(N)ncnc32)C1` [Compound 33], for which the Ki in test [1] is below 100 nM. Further, the EC50 in test [2] is below 100 nM.

As for `CN(C)CCn1nc(-c2ccc(Oc3cccc(OCc4cncs4)c3)cc2)c2c(N)ncnc21` [Compound 34], the Ki in test [1] was below 100 nM. Also, the EC50 in test [2] fell in the range of 100 to 1000 nM.

In the case of `N#Cc1ccccc1COc1cccc(Oc2ccc(-c3nn(C4CCOCC4)c4ncnc(N)c34)cc2)c1` [Compound 35], the Ki in test [1] is below 100 nM. The EC50 in test [2] is below 100 nM.

For `Nc1ncnc2c1c(-c1ccc(Oc3cccc(COc4ccccc4C(F)(F)F)c3)cc1)nn2C1CCOCC1` [Compound 36], the Ki in test [1] is below 100 nM. Moreover, in test [2], the EC50 is below 100 nM.

Turning to `Cc1ncc(COc2cccc(Oc3ccc(-c4nn(C5CCCC5)c5ncnc(N)c45)cc3)c2)s1` [Compound 37], the Ki in test [1] was below 100 nM. Further, the EC50 in test [2] is below 100 nM.

In the case of `Cc1ncc(COc2cccc(Oc3ccc(-c4nn(C5CCOCC5)c5ncnc(N)c45)cc3)c2)s1` [Compound 38], the Ki in test [1] was below 100 nM. Besides, in test [2], the EC50 was below 100 nM.

With `Nc1ncnc2c1c(-c1ccc(Oc3cccc(OCc4cncs4)c3)cc1)nn2CCN1CCCC1` [Compound 39], the Ki in test [1] is below 100 nM. Moreover, the EC50 in test [2] was in the range of 100 to 1000 nM.

For `CN1CCN(CCn2nc(-c3ccc(Oc4cccc(OCc5cncs5)c4)cc3)c3c(N)ncnc32)CC1` [Compound 40], in test [1], the Ki is below 100 nM. Also, the EC50 in test [2] lay in the range of 100 to 1000 nM.

Consider `Nc1ncnc2c1c(-c1ccc(Oc3cccc(OCc4cncs4)c3)cc1)nn2CCc1ccncc1` [Compound 41], for which the Ki in test [1] was below 100 nM. For the same molecule, the EC50 in test [2] was in the range of 100 to 1000 nM.

With `Nc1ncnc2c1c(-c1ccc(Oc3cccc(OCc4cncs4)c3)cc1)nn2CCc1ccccc1` [Compound 42], the Ki in test [1] is below 100 nM. In addition, the EC50 in test [2] is below 100 nM.

For the molecule `Nc1ncnc2c1c(-c1ccc(Oc3cccc(OCc4cncs4)c3)cc1)nn2C1CCNCC1` [Compound 43], in test [1], the Ki was below 100 nM. Moreover, the EC50 in test [2] lay within 100 to 1000 nM.

Regarding `Nc1ncnc2c1c(-c1ccc(Oc3cccc(OCc4cncs4)c3)cc1)nn2CCN1CCOCC1` [Compound 44], in test [1], the Ki is below 100 nM. Further, the EC50 in test [2] was below 100 nM.

As to `CC(=O)n1nc(-c2ccc(Oc3cccc(OCc4ccccc4)c3)cc2)c2c(N)ncnc21` [Compound 45], in test [2], the EC50 was 100 to 1000 nM.

Regarding `CC(=O)N1CCC(n2nc(-c3ccc(Oc4cccc(OCc5cncs5)c4)cc3)c3c(N)ncnc32)CC1` [Compound 47], in test [1], the Ki was below 100 nM. Also, the EC50 in test [2] is below 100 nM.

As to `Cc1ncc(COc2cc(F)cc(Oc3ccc(-c4nn(C[C@@H]5CCCN5)c5ncnc(N)c45)cc3)c2)s1` [Compound 56], the EC50 in test [2] is 100 to 1000 nM.

Turning to `[2H]C([2H])(Oc1cc(F)cc(Oc2ccc(-c3nn(C4CCOCC4)c4ncnc(N)c34)c(F)c2)c1)c1cncn1C` [Compound 89], the EC50 in test [2] was below 100 nM.

`[2H]C([2H])(Oc1cc(F)cc(Oc2ccc(-c3nn(C4CCOCC4)c4ncnc(N)c34)cc2)c1)c1ccc(C)nc1` [Compound 94]: the EC50 in test [2] is below 100 nM.
